Reference: US20240409573A1, “CALICHEAMICIN DERIVATIVES AND ANTIBODY DRUG CONJUGATES THEREOF” (priority 2017, published 2024)
pIC50: −log10 of the molar value.

Columns and labels:
[1] = test system: N87 (gastric cancer) cells, Her2-target expressing; assay: In vitro cell assay, cell viability by MTS, N87; format: cell-based; details: 96 h, read-out: Average IC50, N87
Description: (§1) Her2-Target expressing (BT474 (breast cancer), N87 (gastric cancer), MDA-MB-361-DYT2 (breast cancer)) or Her2-non-expressing (MDA-MB-468, HT29) cells, or 0033-target expressing HL60, HEL92.1.7, NB4, TF-1 or 0033-non-expressing (Raji) cells were seeded in 96-well cell culture plates for 24 hours before treatment. Cells were treated with 3-fold serially diluted antibody-drug conjugates or free compounds (i.e., no antibody conjugated to the drug) in duplicate at 10 concentrations. Cell viability was determined by CellTiter 96® AQueous One Solution Cell Proliferation MTS Assay (Promega, Madison WI) 96 hours after treatment. Relative cell viability was determined as percentage of untreated control. IC50 values were calculated using a four parameter logistic model #203 with XLfit v4.2 (IDBS, Guildford, Surry, UK). Results are shown below in Table 3 (for payloads), Table 4 (for Herceptin conjugates), and Table 5 (for CD33 conjugates).

[2] = test system: MDA-MB-361-DYT2 (breast cancer) cells, Her2-target expressing; assay: In vitro cell assay, cell viability by MTS, MDA-MB-361-DYT2; format: cell-based; details: 96 h, read-out: Average IC50, MDA-MB-361-DYT2
Description: as §1

[3] = test system: HT29 cells, Her2-non-expressing; assay: In vitro cell assay, cell viability by MTS, HT29; format: cell-based; details: Homo sapiens, HT-29, 96 h, read-out: Average IC50, HT29
Description: as §1

[4] = test system: HL60 cells, CD33-target expressing; assay: In vitro cell assay, cell viability by MTS, HL60; format: cell-based; details: Homo sapiens, HL-60, 96 h, read-out: Average IC50, HL-60
Description: as §1

[5] = test system: HEL92.1.7 cells, CD33-target expressing; assay: In vitro cell assay, cell viability by MTS, HEL92.1.7; format: cell-based; details: Homo sapiens, HEL 92.1.7, 96 h, read-out: Average IC50, HEL92.1.7
Description: as §1

[6] = test system: NB4 cells, CD33-target expressing; assay: In vitro cell assay, cell viability by MTS, NB4; format: cell-based; details: Homo sapiens, NB-4, 96 h, read-out: Average IC50, NB4
Description: as §1

[7] = test system: TF-1 cells, CD33-target expressing; assay: In vitro cell assay, cell viability by MTS, TF-1; format: cell-based; details: Homo sapiens, TF-1, 96 h, read-out: Average IC50, TF-1
Description: as §1

[8] = test system: Raji cells, CD33-non-expressing; assay: In vitro cell assay, cell viability by MTS, Raji; format: cell-based; details: Homo sapiens, 96 h, read-out: Average IC50, Raji
Description: as §1

[9] = test system: TF-1 AML xenograft tumors; assay: TF-1 AML subcutaneous xenograft model; format: in vivo, female Athymic nu/nu mice; details: Mylotarg dosed at 1 mg/kg Q4dx4 intravenously
Description: The cyno-human chimeric anti 0033 antibody, 11A1, was conjugated to various linker-payloads (as per 0033 conjugates in Examples 50-110) and tested in Acute Myeloid Leukemia (AML) xenograft models. For each model described below the first dose was given on Day 0. The tumors were measured at least once a week and their volume was calculated with the formula: tumor volume (mm^3)=0.5×(tumor width^2)(tumor length). The mean tumor volumes (±S.E.M.) for each treatment group were calculated having a maximum of 10 animals and a minimum of 4 animals to be included. All animal experiments were conducted in a facility accredited by the Association for Assessment of Laboratory Animal Care under Institutional Animal Care and Use Committee guidelines and appropriate animal research approval.
The effects of anti-CD33 ADCs were examined in immunodeficient mice on the in vivo growth of human tumors. For subcutaneous (sc) AML models, 10×10^6 TF-1 cells were implanted subcutaneously in the flank of female Athymic nu/nu mice. When the tumors reached an average volume of 300 mm^3, animals were staged to ensure uniformity of the tumor size among various treatment groups. The TF-1 AML sc xenograft model was dosed intravenously one time every four days for four cycles (Q4dx4) with PBS vehicle or humanized anti-CD33 […] at the doses provided in Tables 11-13.

## CCN[C@H]1CO[C@@H](O[C@H]2[C@H](O[C@H]3C#C/C=C\C#C[C@]4(O)CC(=O)C(NC(=O)OC)=C3/C4=C\CSSC(C)(C)C(=O)O)O[C@H](C)[C@@H](NO[C@H]3C[C@H](O)[C@H](SC(=O)c4c(C)c(I)c(O[C@@H]5O[C@@H](C)[C@H](O)[C@@H](OC)[C@H]5O)c(OC)c4OC)[C@@H](C)O3)[C@@H]2O)C[C@@H]1OC [Example P12]
[1]
  pIC50: 9.19
[2]
  pIC50: 8.38
[3]
  pIC50: 9.16
[4]
  pIC50: 10.40
[5]
  pIC50: 9.99
[6]
  pIC50: 11.30
[7]
  pIC50: 9.61
[8]
  pIC50: 10.48

## CCN[C@H]1CO[C@@H](O[C@H]2[C@H](O[C@H]3C#C/C=C\C#C[C@]4(O)CC(=O)C(NC(=O)OC)=C3/C4=C\CSSc3ccc(C(=O)O)cc3)O[C@H](C)[C@@H](NO[C@H]3C[C@H](O)[C@H](SC(=O)c4c(C)c(I)c(O[C@@H]5O[C@@H](C)[C@H](O)[C@@H](OC)[C@H]5O)c(OC)c4OC)[C@@H](C)O3)[C@@H]2O)C[C@@H]1OC [Example P13]
[1]
  pIC50: 9.27
[2]
  pIC50: 9.01
[3]
  pIC50: 9.10
[4]
  pIC50: 10.36
[5]
  pIC50: 10.41
[6]
  pIC50: 10.64
[7]
  pIC50: 9.48
[8]
  pIC50: 10.66

## CCN[C@H]1CO[C@@H](O[C@H]2[C@H](O[C@H]3C#C/C=C\C#C[C@]4(O)CC(=O)C(NC(=O)OC)=C3/C4=C\CSSC3CCNCC3)O[C@H](C)[C@@H](NO[C@H]3C[C@H](O)[C@H](SC(=O)c4c(C)c(I)c(O[C@@H]5O[C@@H](C)[C@H](O)[C@@H](OC)[C@H]5O)c(OC)c4OC)[C@@H](C)O3)[C@@H]2O)C[C@@H]1OC [Example P16]
[1]
  pIC50: 10.64
[2]
  pIC50: 10.35
[3]
  pIC50: 10.46
[4]
  pIC50: 10.62
[5]
  pIC50: 10.15
[6]
  pIC50: 10.82
[7]
  pIC50: 9.82
[8]
  pIC50: 10.11

## CCN(CC(=O)O)[C@H]1CO[C@@H](O[C@H]2[C@H](O[C@H]3C#C/C=C\C#C[C@]4(O)CC(=O)C(NC(=O)OC)=C3/C4=C\CSSC(C)C)O[C@H](C)[C@@H](NO[C@H]3C[C@H](O)[C@H](SC(=O)c4c(C)c(I)c(O[C@@H]5O[C@@H](C)[C@H](O)[C@@H](OC)[C@H]5O)c(OC)c4OC)[C@@H](C)O3)[C@@H]2O)C[C@@H]1OC [Example P50]
[1]
  pIC50: 8.98
[2]
  pIC50: 8.13
[3]
  pIC50: 9.11
[4]
  pIC50: 9.43
[5]
  pIC50: 8.41
[6]
  pIC50: 9.90
[7]
  pIC50: 7.75
[8]
  pIC50: 9.36

## Mylotarg®: "anti-CD33 humanized monoclonal antibody conjugated to calicheamicin for the treatment of acute myelogenous leukemia"
[9]
  efficacy in TF-1 AML xenografts: ineffective
